Experiment: Thymol solubility / dispersion in deionized water
Type: physicochemical
Details: suspended at […] in deionized water

Appearance of suspension: showed insoluble particulates
SMILES: Cc1ccc(C(C)C)c(O)c1 [thymol, 2-Isopropyl-5-methylphenol]

From patent US8846863B2, “Heat stable protein ingredients” (University of Tennessee Research Foundation, priority 2010, dated 2014)
